Data on 38 compounds can be found in patent US10442788B2, “Hepatitis B antiviral agents” (ENANTA PHARMACEUTICALS, INC., priority 2015, dated 2019).

A short description of series [1]: Compound toxicity, ATPLite total ATP levels. The format is cell-based. Particulars: human, HepAD38 cells; 15,000 cells/well, three days after compound addition; 50% reduction of total ATP levels relative to no drug controls. The procedure:
Methods: HepAD38 cells are maintained as previously reported (Ladner et al, Antimicrob. Agents Chemother. 1997, […], 1715). Briefly, cells are passaged upon attaining confluency in DMEM/F12 media in the presence of 10% FBS, Penn/Strep, 250 μg/mL G418, and 1 ug/ml tetracycline. Novel compounds are screened by first washing cells three times with PBS to remove tetracycline, and plating in 96 well plates at 35,000 cells/well. Compounds dissolved in DMSO are then diluted 1:200 into wells containing cells. Five days after compound addition, material is harvested for analysis. For an extended 8 day analysis, cells are plated and treated as described above, but media and compound are refreshed on d2 and d5 post initial treatment.
Compound toxicity is evaluated by seeding cells at 15,000 cells/well and treating with compound as described above. Three days after compound addition, cells are treated with ATPLite reagent and compound concentrations that reduce total ATP levels in wells by 50% relative to no drug controls (CC50) are reported; CC50 ranges are as follows: A>30 μM; B 10-30 μM; C<10 μM.

The next series concerns HBV. Put plainly: HepAD38 antiviral assay: reduction of viral product accumulation (virion DNA by qPCR, HBsAg or HBeAg by ELISA). Particulars: Hepatitis B virus, 120 h; HepAD38 cells, five days after compound addition; 50% reduction of viral product accumulation relative to no drug controls; read-out: HepAD38 EC50. The format is cell-based. The procedure, abridged:
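Tetracycline-washed HepAD38 cells treated with compound (DMSO diluted 1:200) for 5 days, or 8 days with media and compound refreshed on d2 and d5. Virion DNA from lysates quantified by qPCR; HBsAg or HBeAg by ELISA. EC50 is the concentration giving 50% reduction versus no-drug controls, reported as ranges A<1 μM, B 1-10 μM, C>10 μM.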

As a reminder, the CC50 is the concentration that lowers cell viability or growth by half. Read a high CC50 as lower toxicity to the cells. Broadly, the EC50 is the concentration giving half of the maximal effect. Consider `O=S(=O)(c1cc(-c2nc(-c3ccc(Cl)c(Cl)c3)c[nH]2)ccc1Cl)N1CCC(O)CC1` [Example 71], for which, in series [1], the CC50 at 3 days fell in the range of 10 to 30 µM. Moreover, the EC50 in the series with HBV was less than 1 µM.

`O=S(=O)(c1cc(-c2nc(-c3ccc(Cl)c(F)c3)c[nH]2)ccc1Cl)N1CCC(O)CC1` [Example 72]: in series [1], the CC50 at 3 days was 10 to 30 µM. Further, the EC50 in the series on HBV was less than 1 µM.

For the compound `Cc1ccc(-c2c[nH]c(-c3ccc(Cl)c(S(=O)(=O)N4CCC(O)CC4)c3)n2)cc1F` [Example 73], the CC50 at 3 days in series [1] is greater than 30 µM. Also, in the series on HBV, the EC50 lay in the range of 1 to 10 µM.

The compound `O=S(=O)(c1cc(-c2nc(-c3ccc(Br)c(Cl)c3)c[nH]2)ccc1Cl)N1CCC(O)CC1` [Example 82] had a CC50 at 3 days in series [1] of less than 10 µM. In addition, the EC50 in the series with HBV was less than 1 µM.

In series [1], `O=S(=O)(c1cc(-c2nc(-c3ccc(C(F)(F)F)c(F)c3)c[nH]2)ccc1Cl)N1CCC(O)CC1` [Example 83] returned a CC50 at 3 days of less than 10 µM. Moreover, the EC50 with HBV is less than 1 µM.

Compound `O=S(=O)(c1cc(-c2nc(-c3ccc(Cl)c(Br)c3)c[nH]2)ccc1Cl)N1CCC(O)CC1` [Example 87] displayed a CC50 at 3 days in series [1] of less than 10 µM. Besides, the EC50 in the series with HBV is less than 1 µM.

Regarding `Cc1cccc(-c2c[nH]c(-c3ccc(Cl)c(S(=O)(=O)N4CCC(O)CC4)c3)n2)c1` [Example 91], the half-maximal cytotoxic concentration (CC50) at 3 days in series [1] is greater than 30 µM. Moreover, in the series on HBV, the EC50 was in the range of 1 to 10 µM.

Compound `N#Cc1cccc(-c2c[nH]c(-c3ccc(Cl)c(S(=O)(=O)N4CCC(O)CC4)c3)n2)c1` [Example 92] yielded a CC50 at 3 days in series [1] greater than 30 µM. In the series on HBV, the EC50 lay within 1 to 10 µM.

On to `COc1cccc(-c2c[nH]c(-c3ccc(Cl)c(S(=O)(=O)N4CCC(O)CC4)c3)n2)c1` [Example 93], for which the CC50 at 3 days in series [1] is greater than 30 µM. Moreover, the EC50 with HBV was greater than 10 µM.

`O=S(=O)(c1cc(-c2nc(-c3cccc(C(F)(F)F)c3)c[nH]2)ccc1Cl)N1CCC(O)CC1` [Example 94] displayed a CC50 at 3 days in series [1] of 10 to 30 µM. Moreover, the EC50 with HBV is less than 1 µM.

For the compound `O=S(=O)(c1cc(-c2nc(-c3cccc(OC(F)(F)F)c3)c[nH]2)ccc1Cl)N1CCC(O)CC1` [Example 95], the CC50 at 3 days in series [1] is greater than 30 µM. In addition, the EC50 in the series with HBV fell in the range of 1 to 10 µM.

`O=S(=O)(c1cc(-c2nc(-c3ccc(C4CC4)cc3)c[nH]2)ccc1Cl)N1CCC(O)CC1` [Example 101]: the CC50 at 3 days in series [1] is less than 10 µM. The EC50 with HBV is less than 1 µM.

Regarding `C#Cc1ccc(-c2c[nH]c(-c3ccc(Cl)c(S(=O)(=O)N4CCC(O)CC4)c3)n2)cc1F` [Example 102], the CC50 at 3 days in series [1] was greater than 30 µM. The EC50 with HBV is 1 to 10 µM.

For the compound `O=S(=O)(c1cc(-c2nc(-c3ccc4[nH]ccc4c3)c[nH]2)ccc1Cl)N1CCC(O)CC1` [Example 103], the CC50 at 3 days in series [1] was greater than 30 µM. Further, in the series with HBV, the concentration giving a half-maximal response (EC50) was less than 1 µM.

`CN(CCO)S(=O)(=O)c1cc(-c2nc(-c3ccc(Br)c(F)c3)c[nH]2)ccc1Cl` [Example 104]: in series [1], the 50% cytotoxic concentration (CC50) at 3 days was 10 to 30 µM. Moreover, the EC50 in the series on HBV is less than 1 µM.

As to `COCCN(C)S(=O)(=O)c1cc(-c2nc(-c3ccc(Br)c(F)c3)c[nH]2)ccc1Cl` [Example 105], the CC50 at 3 days in series [1] was greater than 30 µM. In the series with HBV, the EC50 was less than 1 µM.

As for `CN(CCCO)S(=O)(=O)c1cc(-c2nc(-c3ccc(Br)c(F)c3)c[nH]2)ccc1Cl` [Example 106], the CC50 at 3 days in series [1] is less than 10 µM. Also, the EC50 with HBV was less than 1 µM.

In turn, `O=S(=O)(c1cc(-c2nc(-c3ccc(Br)c(F)c3)c[nH]2)ccc1Cl)N1CCCC1CO` (stereo not shown) [Example 107] had a CC50 at 3 days in series [1] greater than 30 µM. Also, the EC50 with HBV was less than 1 µM.

`O=S(=O)(c1cc(-c2nc(-c3ccc(Br)c(F)c3)c[nH]2)ccc1Cl)N1CC(O)C1` [Example 108] yielded a CC50 at 3 days in series [1] greater than 30 µM. Moreover, in the series on HBV, the EC50 was in the range of 1 to 10 µM.

In series [1], `O=S(=O)(c1cc(-c2nc(-c3ccc(Br)c(F)c3)c[nH]2)ccc1Cl)N1CCC(O)C1` (stereo not shown) [Example 109] gave a CC50 at 3 days of less than 10 µM. Besides, the EC50 with HBV is less than 1 µM.

For the compound `O=S(=O)(c1cc(-c2nc(-c3ccc(Br)c(F)c3)c[nH]2)ccc1Cl)N1CCCC(O)C1` (stereo not shown) [Example 110], the CC50 at 3 days in series [1] was greater than 30 µM. Further, the EC50 with HBV is less than 1 µM.

As to `CC(C)NS(=O)(=O)c1cc(-c2nc(-c3ccc(Br)c(F)c3)c[nH]2)ccc1Cl` [Example 111], the CC50 at 3 days in series [1] is less than 10 µM. Also, in the series on HBV, the concentration for a half-maximal effect (EC50) was less than 1 µM.

For `CC(C)N(C)S(=O)(=O)c1cc(-c2nc(-c3ccc(Br)c(F)c3)c[nH]2)ccc1Cl` [Example 112], the CC50 at 3 days in series [1] is greater than 30 µM. Also, the EC50 in the series on HBV was less than 1 µM.

For `CN(C1CCCCC1)S(=O)(=O)c1cc(-c2nc(-c3ccc(Br)c(F)c3)c[nH]2)ccc1Cl` [Example 113], the CC50 at 3 days in series [1] was less than 10 µM. In addition, in the series on HBV, the concentration for a half-maximal effect (EC50) was less than 1 µM.

Take `O=S(=O)(c1cc(-c2nc(-c3ccc(Br)c(F)c3)c[nH]2)ccc1Cl)N1CCC(O)C(F)C1` (stereo not shown) [Example 114]: the CC50 at 3 days in series [1] is greater than 30 µM. Also, the EC50 in the series with HBV was less than 1 µM.

`O=S(=O)(NCCO)c1cc(-c2nc(-c3ccc(Br)c(F)c3)c[nH]2)ccc1Cl` [Example 115] returned a CC50 at 3 days in series [1] greater than 30 µM. Besides, in the series on HBV, the EC50 is less than 1 µM.

Regarding `O=S(=O)(NCCCO)c1cc(-c2nc(-c3ccc(Br)c(F)c3)c[nH]2)ccc1Cl` [Example 116], in series [1], the CC50 at 3 days is greater than 30 µM. Further, the EC50 in the series with HBV is less than 1 µM.

In turn, `CS(=O)(=O)CCNS(=O)(=O)c1cc(-c2nc(-c3ccc(Br)c(F)c3)c[nH]2)ccc1Cl` [Example 117] registered a CC50 at 3 days in series [1] greater than 30 µM. For the same compound, in the series on HBV, the EC50 was less than 1 µM.

Turning to `CNCCNS(=O)(=O)c1cc(-c2nc(-c3ccc(Br)c(F)c3)c[nH]2)ccc1Cl` [Example 118], in series [1], the CC50 at 3 days was greater than 30 µM. For the same compound, in the series on HBV, the EC50 is less than 1 µM.

Turning to `COC(=O)NCCNS(=O)(=O)c1cc(-c2nc(-c3ccc(Br)c(F)c3)c[nH]2)ccc1Cl` [Example 119], the CC50 at 3 days in series [1] is less than 10 µM. For the same compound, the EC50 in the series with HBV is less than 1 µM.

`COC(=O)NCC(C)NS(=O)(=O)c1cc(-c2nc(-c3ccc(Br)c(F)c3)c[nH]2)ccc1Cl` (stereo not shown) [Example 120] returned a CC50 at 3 days in series [1] of less than 10 µM. Moreover, the EC50 with HBV was less than 1 µM.

As to `Cc1ccccc1-c1c[nH]c(-c2ccc(Cl)c(S(=O)(=O)N3CCC(O)CC3)c2)n1` [Example 121], the cytotoxic concentration (CC50) at 3 days in series [1] was greater than 30 µM. In addition, the EC50 in the series on HBV was 1 to 10 µM.

`O=S(=O)(c1cc(-c2nc(-c3ccccc3C3CC3)c[nH]2)ccc1Cl)N1CCC(O)CC1` [Example 122]: the CC50 at 3 days in series [1] is greater than 30 µM. In the series with HBV, the EC50 is greater than 10 µM.

The compound `O=S(=O)(c1cc(-c2nc(-c3ccc(Br)c(F)c3)c[nH]2)ccc1Cl)N1CCC(F)CC1` [Example 123] gave a CC50 at 3 days in series [1] greater than 30 µM. Also, in the series on HBV, the EC50 was less than 1 µM.

In turn, `O=S(=O)(c1cc(-c2nc(-c3ccc(Br)c(F)c3)c[nH]2)ccc1Cl)N1CCC(F)(F)CC1` [Example 124] yielded a CC50 at 3 days in series [1] of less than 10 µM. In the series on HBV, the EC50 is less than 1 µM.

In series [1], `COC(=O)CNS(=O)(=O)c1cc(-c2nc(-c3ccc(Br)c(F)c3)c[nH]2)ccc1Cl` [Example 125] returned a CC50 at 3 days greater than 30 µM. Also, in the series with HBV, the EC50 was greater than 10 µM.

Turning to `COC(=O)CN(C)S(=O)(=O)c1cc(-c2nc(-c3ccc(Br)c(F)c3)c[nH]2)ccc1Cl` [Example 126], the CC50 at 3 days in series [1] was greater than 30 µM. The EC50 in the series with HBV was greater than 10 µM.

Regarding `CC(CO)NS(=O)(=O)c1cc(-c2nc(-c3ccc(Br)c(F)c3)c[nH]2)ccc1Cl` (stereo not shown) [Example 127], the half-maximal cytotoxic concentration (CC50) at 3 days in series [1] is greater than 30 µM. In the series with HBV, the EC50 is less than 1 µM.
